Experiment [1] addresses T1, 5-hydroxytryptamine receptor 1A (Homo sapiens) (UniProt P08908).
T1 sequence (whole entry): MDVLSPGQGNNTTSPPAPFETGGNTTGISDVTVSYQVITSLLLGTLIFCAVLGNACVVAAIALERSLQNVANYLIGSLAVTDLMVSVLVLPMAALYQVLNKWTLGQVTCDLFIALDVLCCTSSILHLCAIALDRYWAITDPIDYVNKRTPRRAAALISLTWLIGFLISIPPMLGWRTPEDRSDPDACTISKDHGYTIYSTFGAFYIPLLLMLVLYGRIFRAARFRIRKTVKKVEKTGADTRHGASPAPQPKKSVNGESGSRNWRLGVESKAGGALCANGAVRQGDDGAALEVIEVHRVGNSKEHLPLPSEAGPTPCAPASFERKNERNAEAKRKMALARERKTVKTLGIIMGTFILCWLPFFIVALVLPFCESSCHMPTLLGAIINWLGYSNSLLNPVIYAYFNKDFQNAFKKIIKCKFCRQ
The experiment in a line: Agonist activity assessed by stimulation of [35S]GTPgammaS binding in CHO cells expressing 5HT1A receptor relative to 5HT. It is filed as functional, cell-based.

Experiment [2] addresses Sodium-dependent serotonin transporter (Rattus norvegicus, UniProt P31652). As to the kind of experiment: Displacement of [3H]paroxetine from rat cortical 5-HT reuptake.
The target in experiment [3] is T2, 5-hydroxytryptamine receptor 1A (Homo sapiens, UniProt P08908).
T2 sequence (P08908 whole entry): T1 sequence (whole entry)
The experiment in a line: Displacement of [3H]8-OH-DPAT from 5HT1A receptor expressed in CHO cells. The class given is cell-based.

Experiment [4] has as its target T2, 5-hydroxytryptamine receptor 1A. As to the kind of experiment: Intrinsic activity assessed by stimulation of [35S]GTP-gamma-S binding in CHO cells expressing 5HT1A receptor. It is filed as functional, cell-based.
Experiment [5] deals with Adrenergic receptor alpha-1 (Rattus norvegicus) (UniProt P15823+P23944+P43140). The experiment in a line: Inhibition of [3H]prazosin binding to adrenergic alpha-1 receptor in rat cortical membrane at 100 nM. The class given is cell membranes.
Experiment [6] deals with T3, Adrenergic receptor alpha-1 (Rattus norvegicus, UniProt P15823+P23944+P43140).
T3 sequence (P15823 whole entry): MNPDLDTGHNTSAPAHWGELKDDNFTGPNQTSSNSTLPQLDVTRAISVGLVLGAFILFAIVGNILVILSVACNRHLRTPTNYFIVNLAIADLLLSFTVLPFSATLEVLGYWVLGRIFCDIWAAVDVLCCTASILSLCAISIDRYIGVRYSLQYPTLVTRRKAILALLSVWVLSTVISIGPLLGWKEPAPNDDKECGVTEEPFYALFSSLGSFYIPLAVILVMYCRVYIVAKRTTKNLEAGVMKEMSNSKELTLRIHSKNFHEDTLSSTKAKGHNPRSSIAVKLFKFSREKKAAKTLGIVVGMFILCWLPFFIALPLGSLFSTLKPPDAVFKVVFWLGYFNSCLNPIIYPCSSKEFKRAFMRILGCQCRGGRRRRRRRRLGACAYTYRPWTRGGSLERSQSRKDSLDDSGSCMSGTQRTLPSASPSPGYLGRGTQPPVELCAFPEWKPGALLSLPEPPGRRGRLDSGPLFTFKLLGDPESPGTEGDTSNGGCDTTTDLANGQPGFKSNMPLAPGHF
T3 sequence (P23944 whole entry): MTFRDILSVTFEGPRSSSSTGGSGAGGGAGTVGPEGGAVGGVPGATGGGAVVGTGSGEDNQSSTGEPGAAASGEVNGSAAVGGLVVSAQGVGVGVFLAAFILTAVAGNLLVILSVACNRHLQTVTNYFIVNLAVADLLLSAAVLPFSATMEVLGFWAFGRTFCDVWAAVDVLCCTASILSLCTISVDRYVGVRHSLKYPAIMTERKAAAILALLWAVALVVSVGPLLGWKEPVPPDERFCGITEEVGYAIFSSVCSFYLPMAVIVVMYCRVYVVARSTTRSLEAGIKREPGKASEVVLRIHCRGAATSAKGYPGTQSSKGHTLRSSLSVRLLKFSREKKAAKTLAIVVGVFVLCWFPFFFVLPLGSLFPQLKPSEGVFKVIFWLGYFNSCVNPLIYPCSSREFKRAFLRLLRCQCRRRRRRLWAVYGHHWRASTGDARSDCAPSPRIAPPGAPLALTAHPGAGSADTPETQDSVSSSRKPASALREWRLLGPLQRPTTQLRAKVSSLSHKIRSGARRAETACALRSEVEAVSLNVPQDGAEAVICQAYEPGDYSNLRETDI
T3 sequence (P43140 whole entry): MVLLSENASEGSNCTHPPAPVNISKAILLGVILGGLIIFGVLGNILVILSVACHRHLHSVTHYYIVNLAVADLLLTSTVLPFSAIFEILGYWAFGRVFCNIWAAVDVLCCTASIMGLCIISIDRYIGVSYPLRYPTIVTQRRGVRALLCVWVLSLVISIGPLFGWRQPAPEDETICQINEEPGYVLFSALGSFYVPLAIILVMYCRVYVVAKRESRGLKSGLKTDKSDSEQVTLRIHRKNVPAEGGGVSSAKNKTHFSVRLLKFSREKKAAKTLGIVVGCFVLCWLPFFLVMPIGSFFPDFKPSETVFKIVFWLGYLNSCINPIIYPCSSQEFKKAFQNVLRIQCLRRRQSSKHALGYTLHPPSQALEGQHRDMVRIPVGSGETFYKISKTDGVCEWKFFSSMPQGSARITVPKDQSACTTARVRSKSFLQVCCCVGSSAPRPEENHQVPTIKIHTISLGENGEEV
The experiment in a line: Displacement of [3H]prazosin from adrenergic alpha-1 receptor in rat cortical membrane. It is filed as cell membranes.

In experiment [7] the target is Sodium-dependent serotonin transporter (Rattus norvegicus) (UniProt P31652). The experiment in a line: Inhibition of [3H]paroxetine binding to rat cortical 5-HT reuptake at 100 nM.
Chain of Sodium-dependent serotonin transporter (Rattus norvegicus) (P31652 whole entry): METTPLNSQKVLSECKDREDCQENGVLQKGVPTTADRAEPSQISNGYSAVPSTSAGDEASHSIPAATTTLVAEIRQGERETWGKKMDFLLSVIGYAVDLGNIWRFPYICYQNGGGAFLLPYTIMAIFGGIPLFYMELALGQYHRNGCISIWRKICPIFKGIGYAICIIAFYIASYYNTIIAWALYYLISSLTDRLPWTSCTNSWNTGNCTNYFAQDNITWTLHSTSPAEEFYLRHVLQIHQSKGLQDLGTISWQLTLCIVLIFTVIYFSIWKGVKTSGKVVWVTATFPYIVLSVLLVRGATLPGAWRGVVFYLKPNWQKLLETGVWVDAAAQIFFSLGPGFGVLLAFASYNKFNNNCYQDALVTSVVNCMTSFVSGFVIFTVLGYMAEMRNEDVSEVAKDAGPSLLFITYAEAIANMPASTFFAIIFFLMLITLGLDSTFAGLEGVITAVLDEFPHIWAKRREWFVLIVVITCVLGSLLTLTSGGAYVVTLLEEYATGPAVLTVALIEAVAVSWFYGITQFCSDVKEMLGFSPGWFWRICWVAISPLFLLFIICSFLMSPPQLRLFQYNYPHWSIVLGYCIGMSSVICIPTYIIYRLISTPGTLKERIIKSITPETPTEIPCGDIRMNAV

Structures are written as SMILES.

Chain of Sodium-dependent serotonin transporter (P31652 whole entry): as above

For the compound `CC(C)CN1CC(CNCCc2c[nH]c3ccc(F)cc23)Oc2ccccc21` (centres undefined), the Emax in experiment [1] was determined as 88%. In addition, the Ki in experiment [2] stood at 51.5 nM; in experiment [3] it was 8.15 nM. Also, a half-maximal response in experiment [4] (EC50) required 329 nM.

Compound `CN1CC(CNCCc2c[nH]c3ccc(F)cc23)Oc2ccccc21` (centres undefined) showed an Emax in experiment [1] of 80%. The compound further came in with an inhibition in experiment [5] of 26%. For the same compound, the Ki was 12.4 nM in experiment [2] and 8.46 nM in experiment [3]. The EC50 in experiment [4] came out at 167 nM.

`CC(C)N1CC(CNCCCc2c[nH]c3ccccc23)Oc2ccccc21` (centres undefined) returned an Emax in experiment [1] of 88%. Further, the Ki in experiment [2] was 23.8 nM; in experiment [3] it was 90.4 nM. The same compound returned an EC50 in experiment [4] of 329 nM.

In experiment [1], `CCN1CC(CN2CC=C(c3c[nH]c4ccc(F)cc34)CC2)Oc2c(OC)cccc21` (centres undefined) gave an Emax of 54%. Moreover, the values for the Ki in experiment [2] and in experiment [6] were 13.2 nM and 229 nM, respectively. In experiment [4], this compound gave an EC50 of 418 nM.

Regarding `c1ccc(N2CC(CNCCCc3c[nH]c4ccccc34)Oc3ccccc32)cc1` (centres undefined), the inhibition in experiment [7] amounted to 7%. This compound gave a Ki in experiment [3] of 75.8 nM.

As to `Fc1ccc2[nH]cc(CCNCC3CN(c4ccccc4)c4ccccc4O3)c2c1` (centres undefined), the inhibition in experiment [5] came to 65%; in experiment [7], 43%. This compound also came in with a Ki in experiment [3] of 7.14 nM.

`COc1cccc2c1OC(CN1CC=C(c3c[nH]c4ccc(F)cc34)CC1)CN2` (centres undefined): in experiment [1], the Emax is 35%. The Ki is 6.94 nM in experiment [2] and 14.5 nM in experiment [6]. The response in experiment [4] was half-maximal at 386 nM (EC50).

As to `COc1ccc2c(c1)OC(CNCCc1c[nH]c3ccc(F)cc13)CN2` (centres undefined), the Emax in experiment [1] was determined as 56%. For the same compound, the Ki was determined as 11.7 nM in experiment [2], 103 nM in experiment [3] and 44.5 nM in experiment [6]. The compound also came in with an EC50 in experiment [4] of 181 nM.

As to `Fc1ccc2[nH]cc(CCNCC3CN(Cc4ccccc4)c4ccccc4O3)c2c1` (centres undefined), the inhibition in experiment [7] was determined as 23%. This compound showed a Ki in experiment [3] of 7.25 nM.

For `CN1CC(CNCCc2c[nH]c3ccccc23)Oc2ccccc21` (centres undefined), the Emax in experiment [1] turned out to be 95%. For the same compound, the inhibition in experiment [5] stood at 28%. For the same compound, the values for the Ki in experiment [2] and in experiment [3] were 88.5 nM and 5.86 nM, respectively. It took 33.6 nM to reach a half-maximal effect in experiment [4] (EC50).

Turning to `CCCN1CC(CNCCc2c[nH]c3ccccc23)Oc2ccccc21` (centres undefined), in experiment [1], the Emax amounted to 100%. In addition, the Ki in experiment [2] was determined as 22.7 nM; in experiment [3] it was 12.8 nM; in experiment [6], 481 nM. Besides, in experiment [4], the EC50 is 196 nM.

Take `C1=C(c2c[nH]c3ccccc23)CCN(CC2CNc3ccccc3O2)C1` (centres undefined): the Emax in experiment [1] turned out to be 62%. In addition, the Ki in experiment [2] was 8.37 nM; in experiment [6] it was 16.6 nM. This compound also yielded an EC50 in experiment [4] of 1130 nM.

On to `c1ccc2c(c1)NCC(CNCCc1c[nH]c3ccccc13)O2` (centres undefined), for which the Emax in experiment [1] came out at 96%. Also, the inhibition in experiment [5] worked out at 26%. Also, the Ki turned out to be 89.8 nM in experiment [2] and 6.91 nM in experiment [3]. Moreover, the EC50 in experiment [4] was 93.5 nM.

As for `c1ccc(CN2CC(CNCCCc3c[nH]c4ccccc34)Oc3ccccc32)cc1` (centres undefined), the Emax in experiment [1] is 64%. Further, the Ki was found to be 109 nM in experiment [2] and 76.1 nM in experiment [3]. For the same compound, in experiment [4], the EC50 turned out to be 1380 nM.

With `COc1cccc2c1OC(CNCCc1c[nH]c3ccc(F)cc13)CN2` (centres undefined), in experiment [1], the Emax turned out to be 66%. Besides, the Ki was 3.13 nM in experiment [2], 9.31 nM in experiment [3] and 7.6 nM in experiment [6]. In addition, the EC50 in experiment [4] was found to be 52.2 nM.

As to `CC(C)N1CC(CNCCc2c[nH]c3ccc(F)cc23)Oc2ccccc21` (centres undefined), the Emax in experiment [1] worked out at 90%. For the same compound, the Ki was determined as 21.1 nM in experiment [2] and 2.81 nM in experiment [3]. The same compound yielded an EC50 in experiment [4] of 191 nM.

In experiment [1], `CN1CC(CNCCc2c[nH]c3ccc(F)cc23)Oc2cc(Cl)ccc21` (centres undefined) registered an Emax of 64%. The Ki in experiment [2] came to 42.6 nM; in experiment [3], 75.2 nM; in experiment [6], 607 nM. The compound also displayed an EC50 in experiment [4] of 336 nM.

`Fc1ccc2[nH]cc(CCNCC3CNc4ccccc4O3)c2c1` (centres undefined): the Emax in experiment [1] stood at 100%. In addition, the Ki in experiment [2] was 16 nM; in experiment [3], 11 nM; in experiment [6], 70 nM. In experiment [4], this compound had an EC50 of 155 nM.

The compound `CCCN1CC(CN2CC=C(c3c[nH]c4ccc(F)cc34)CC2)Oc2c(OC)cccc21` (centres undefined) had an Emax in experiment [1] of 92%. In addition, the Ki in experiment [2] is 22.6 nM; in experiment [6] it was 505.5 nM. Moreover, a half-maximal effect in experiment [4] (EC50) was put at 135 nM.

The compound `COc1cccc2c1OC(CN1CC=C(c3c[nH]c4ccc(F)cc34)CC1)CN2C` (centres undefined) registered an Emax in experiment [1] of 93%. The results for the Ki in experiment [2] and in experiment [6] were 12.6 nM and 96.5 nM, respectively. For the same compound, in experiment [4], the EC50 is 190 nM.

`c1ccc(N2CC(CNCCc3c[nH]c4ccccc34)Oc3ccccc32)cc1` (centres undefined) came in with an inhibition in experiment [7] of 23%. Also, in experiment [3], the Ki turned out to be 30.2 nM.

For `CCN1CC(CNCCc2c[nH]c3ccc(F)cc23)Oc2ccccc21` (centres undefined), the Emax in experiment [1] was 100%. Moreover, the Ki in experiment [2] and in experiment [3] was 15.3 nM in each case. In experiment [4], this compound gave an EC50 of 90 nM.

The values above are taken from ChEMBL document CHEMBL1138978, “Studies toward the discovery of the next generation of antidepressants. Part 5: 3,4-Dihydro-2H-benzo[1,4]oxazine derivatives with dual 5-HT1A receptor and serotonin transporter affinity” (Bioorg Med Chem Lett, 2006).
